Assay results published in PMC8167103, “Regulation of Bcl-XL by non-canonical NF-κB in the context of CD40-induced drug resistance in CLL” (Cell Death and Differentiation, 2021).

Target: T1, NIK (Homo sapiens, UniProt Q99558)
T1 construct: gene MAP3K14
Experiment: Kinase-Glo luminescence kinase assay with recombinant human active NIK, myelin basic protein and […] ATP; IC50 converted to Ki
Type: biochemical

T1 sequence (Q99558 whole entry): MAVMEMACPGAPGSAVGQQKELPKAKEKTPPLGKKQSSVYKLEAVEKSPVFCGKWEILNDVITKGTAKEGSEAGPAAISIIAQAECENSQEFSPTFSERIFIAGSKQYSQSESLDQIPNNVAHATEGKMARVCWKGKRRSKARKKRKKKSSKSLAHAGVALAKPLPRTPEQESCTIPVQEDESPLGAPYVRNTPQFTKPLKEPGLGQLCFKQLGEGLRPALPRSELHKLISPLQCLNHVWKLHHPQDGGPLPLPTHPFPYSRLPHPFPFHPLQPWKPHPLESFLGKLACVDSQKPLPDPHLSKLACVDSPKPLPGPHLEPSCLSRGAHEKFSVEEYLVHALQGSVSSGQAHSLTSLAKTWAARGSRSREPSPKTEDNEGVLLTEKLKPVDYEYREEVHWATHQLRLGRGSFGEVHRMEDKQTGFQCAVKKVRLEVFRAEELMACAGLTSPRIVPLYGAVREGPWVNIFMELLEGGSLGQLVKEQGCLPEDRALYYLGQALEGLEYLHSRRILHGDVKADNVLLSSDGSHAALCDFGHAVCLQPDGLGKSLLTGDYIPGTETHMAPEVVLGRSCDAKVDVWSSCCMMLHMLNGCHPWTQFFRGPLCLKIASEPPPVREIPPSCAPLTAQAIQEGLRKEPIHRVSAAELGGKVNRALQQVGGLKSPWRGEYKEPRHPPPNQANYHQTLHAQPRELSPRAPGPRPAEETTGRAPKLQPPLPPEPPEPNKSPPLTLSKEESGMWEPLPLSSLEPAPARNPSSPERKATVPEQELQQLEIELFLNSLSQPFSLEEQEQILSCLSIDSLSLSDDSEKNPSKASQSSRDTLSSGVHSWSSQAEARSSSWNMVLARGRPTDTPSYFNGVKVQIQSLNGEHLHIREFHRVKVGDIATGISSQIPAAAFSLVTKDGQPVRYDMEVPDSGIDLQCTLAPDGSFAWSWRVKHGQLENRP

SMILES: CC(C)(O)C#Cc1ccc2c(c1)N(c1ccnc(N)n1)CC2 [CW15337, 4-(1-(2-aminopyrimidin-4-yl)indolin-6-yl)-2-methylbut-3-yn-2-ol]
- Ki: 25 nM
